The values below come from patent publication US20260285857A1, “BICYCLIC AND HETEROCYCLIC AMIDE COMPOUNDS” (priority 2024, published 2026).

Each structure is given as a SMILES string.

One assay deals with immunoglobulin light chain protein WIL-FL T46L. Nature of the assay: Differential scanning fluorimetry (thermal shift) assay. The following applies: Table A; temperature shift [Tm]compound-[Tm]vehicle; recombinant WIL-FL T46L. It counts as binding. Background: In DSF a fluorescence change marks the thermal transition of the protein.
For the compound `Cc1noc([C@@H]2C[C@H](NC(=O)c3nc4c(C)cc(N5CC[C@](C)(c6ccccc6)C5)cn4n3)CN2)n1` [Compound 133], the DSF result was “***** (>2.5° C.=*****)”.
The same measure, in the same setting: with `Cc1cc(N2CC[C@](C)(c3cccc(Cl)c3)C2)cn2nc(C(=O)N3C[C@@H]4CN(c5cccc(C(=O)O)n5)C[C@@H]4C3)nc12` [Compound 418] the entry was “***** (>2.5° C.=*****)”.
On the same count and under the same terms, for `Cc1cc(N2CC[C@](C)(c3ccccc3)C2)cn2nc(C(=O)N[C@@H]3CNCC34CC4)nc12` [Compound 186] the value was “***** (>2.5° C.=*****)”; for `Cc1cc(N2CC[C@@](C)(c3ccc(F)cc3)C2)cn2nc(C(=O)N3CC[C@@]4(CCN(c5cccc(C(=O)O)n5)C4)C3)nc12` [Compound 428], “***** (>2.5° C.=*****)”; for `CC(O)c1cc(N2CC[C@](C)(c3ccccc3)C2)cn2nc(C(=O)NC3CCN(c4cccc(C(=O)O)n4)CC3)nc12` (some centres unmarked) [Compound 342], “***** (>2.5° C.=*****)”.
Regarding `Cc1cc(N2CC[C@](C)(c3ccccc3)C2)cn2nc(C(=O)NC3CCOC3)nc12` (some centres unmarked) [Compound 118], the DSF entry is on record as “***** (>2.5° C.=*****)”.
On to `Cc1cc(N2CC[C@](C)(c3ccccc3)C2)cn2nc(C(=O)NC3COC4(CCN(c5cccc(C(=O)O)n5)C4)C3)nc12` (some centres unmarked) [Compound 220], for which the DSF entry was “***** (>2.5° C.=*****)”.
Still for that read-out and setting: with `Cc1cc(N2CC[C@](C)(c3ccccc3)C2)cn2nc(C(=O)NC3CNC(C)(C(=O)O)C3)nc12` (some centres unmarked) [Compound 179] the entry was “***** (>2.5° C.=*****)”.
Turning to `Cc1n[nH]c(C2C3COC2(c2nc4c(C)cc(OC[C@H](C)c5ccccc5)cn4n2)C3)n1` (some centres unmarked) [Compound 436], the DSF entry is given as “***** (>2.5° C.=*****)”.
Consider `Cc1cc(N2CC[C@](C)(c3ccccc3)C2)cn2nc(C(=O)NC3CNC(C(F)(F)F)C3)nc12` (some centres unmarked) [Compound 203], for which the DSF entry was “***** (>2.5° C.=*****)”.
The same measure, in the same setting: with `Cc1cc(N2CC[C@](C)(c3ccc(Cl)cc3)C2)cn2nc(C(=O)N3C[C@@H]4CN(c5cccc(C(=O)O)n5)C[C@@H]4C3)nc12` [Compound 420] the entry was “***** (>2.5° C.=*****)”.
Consider `Cc1nnc(C2C3COC2(c2nc4c(C)cc(N5CC[C@](C)(c6ccccc6)C5)cn4n2)C3)o1` (some centres unmarked) [Compound 75], for which the DSF result is reported as “***** (>2.5° C.=*****)”.
`Cc1cc(N2CC[C@](C)(c3ccccc3)C2)cn2nc(C(=O)N3CCC4(CCN(c5ccnc(C(=O)O)c5)C4)C3)nc12` (some centres unmarked) [Compound 257]: the DSF result is “***** (>2.5° C.=*****)”.
As for `Cc1cc(N2CC[C@](C)(c3ccccc3)C2)cn2nc(C(=O)NC3CC(=O)N(c4ccnc(C(=O)O)c4)C3)nc12` (some centres unmarked) [Compound 243], the DSF entry is given as “***** (>2.5° C.=*****)”.
With `Cc1cc(OC[C@H](C)c2ccccc2)cn2nc(C(=O)NC3COC4(CCOC4)C3)nc12` (some centres unmarked) [Compound 303], the DSF result is on record as “***** (>2.5° C.=*****)”.
`Cc1cc(N2CC[C@](C)(c3ccccc3)C2)cn2nc(C(=O)N3CCOC4(CCN(c5cccc(C(=O)O)n5)C4)C3)nc12` (some centres unmarked) [Compound 242]: the DSF entry is given as “***** (>2.5° C.=*****)”.
Same read-out and setting: for `Cc1cc(N2CC[C@](C)(c3ccccc3)C2)cn2nc(C(=O)N[C@@H](C)CO)nc12` [Compound 139] the value was “***** (>2.5° C.=*****)”.
On the same count and under the same terms, for `Cc1cc(OC[C@H](C)c2ccccc2)cn2nc(C(=O)O)nc12` [Compound 312] the value was “**** (>1.5-2.5° C.=****)”.
The same measure, in the same setting: with `CCC1(c2ccccc2)CN(c2cc(C)c3nc(C(=O)NC4CCN(c5ccnc(C(=O)O)c5)CC4)nn3c2)C1` [Compound 395] the entry was “***** (>2.5° C.=*****)”.
For `CCC(=O)NCC1C2COC1(c1nc3c(C)cc(N4CC[C@](C)(c5ccccc5)C4)cn3n1)C2` (some centres unmarked) [Compound 81], the DSF entry was “***** (>2.5° C.=*****)”.
The same measure, in the same setting: for `Cc1cc(N2CC[C@](C)(c3ccccc3)C2)cn2nc(C(=O)NC34CNCC3C4)nc12` (some centres unmarked) [Compound 185] the value was “***** (>2.5° C.=*****)”.
Still for that read-out and setting: with `Cc1cc(N2CC[C@](C)(c3ccccc3)C2)cn2nc(C(=O)N3CC[C@]4(CCN(c5cccc(C(=O)O)n5)C4)C3)nc12` [Compound 268] the entry was “***** (>2.5° C.=*****)”.
On the same count and under the same terms, with `CNC(=O)c1cn2cc(N3CC[C@](C)(c4ccccc4)C3)cc(C)c2n1` [Compound 434] the entry was “***** (>2.5° C.=*****)”.
Turning to `Cc1cc(OC[C@H](C)c2ccccc2)cn2nc(C(=O)N[C@@H]3CC[C@H]3O)nc12` [Compound 319], the DSF result is on record as “***** (>2.5° C.=*****)”.
As for `Cc1cc(N2CC[C@](C)(c3ccccc3)C2)cn2nc(C34CC(CO3)C4c3nn[nH]n3)nc12` (some centres unmarked) [Compound 76], the DSF entry is on record as “***** (>2.5° C.=*****)”.
Regarding `Cc1nn(CC2C3COC2(c2nc4c(C)cc(N5CC[C@](C)(c6ccccc6)C5)cn4n2)C3)c(=O)[nH]1` (some centres unmarked) [Compound 87], the DSF entry is given as “***** (>2.5° C.=*****)”.
Consider `Cc1cc(N2CCC(C)(c3nccs3)C2)cn2nc(C(=O)N3CC[C@@]4(CCN(c5cccc(C(=O)O)n5)C4)C3)nc12` (some centres unmarked) [Compound 99], for which the DSF entry is “**** (>1.5-2.5° C.=****)”.
The same measure, in the same setting: for `Cc1cc(N2CC[C@](C)(c3ccccc3)C2)cn2nc(C(=O)N3CC4CN(c5ccnc(C(=O)O)c5)CC4C3)nc12` (some centres unmarked) [Compound 278] the value was “***** (>2.5° C.=*****)”.

The same assay, now with this note: Table B; temperature shift [Tm]compound-[Tm]vehicle; recombinant WIL-FL T46L.
`Cc1cc(N2CC(CF)(c3ccccc3)C2)cn2nc(C(=O)N3CC[C@@]4(CCN(c5cccc(C(=O)O)n5)C4)C3)nc12` [Compound 752, 6-[(5R)-2-[6-[3-(fluoromethyl)-3-phenyl-azetidin-1-yl]-8-methyl-[1,2,4]triazolo[1,5-a]pyridine-2-carbonyl]-2,7-diazaspiro[4.4]nonan-7-yl]pyridine-2-carboxylic acid]: the DSF result is “***** (>2.5° C.=*****)”.
The same measure, in the same setting: for `Cc1cc(N2CC[C@](C)(c3ccccc3)C2)cn2nc(C34CC(NC(=O)C5CC(C(=O)O)C5)(CO3)C4)nc12` (some centres unmarked) [Compound 468] the value was “***** (>2.5° C.=*****)”.
The same measure, in the same setting: for `Cc1cc(N2CC[C@](C)(c3ccccc3)C2)cn2nc(C34CC(CO3)C4N3CC4(COC4)NC3=O)nc12` (stereo partly drawn) [Compound 509, 7-(1-(8-methyl-6-((R)-3-methyl-3-phenylpyrrolidin-1-yl)-[1,2,4]triazolo[1,5-a]pyridin-2-yl)-2-oxabicyclo[2.1.1]hexan-5-yl)-2-oxa-5,7-diazaspiro[3.4]octan-6-one] the value was “***** (>2.5° C.=*****)”; for `Cc1cc(N2CC[C@](C)(c3ccccc3)C2)cn2nc(C(=O)N3CCC(Nc4cccc(C(=O)O)n4)C3)nc12` (some centres unmarked) [Compound 616], “***** (>2.5° C.=*****)”; for `Cc1cc(N2CC[C@](C)(c3ccccc3)C2)cn2nc(C34CC(CO3)C4Cn3ncc(CO)n3)nc12` (some centres unmarked) [Compound 482], “***** (>2.5° C.=*****)”.
The same measure, in the same setting: for `Cc1cc(N2CC[C@](C)(c3ccccc3)C2)cn2nc(C(=O)N3CC4(C3)CN(c3cccc(C(=O)O)n3)CCO4)nc12` [Compound 665] the value was “***** (>2.5° C.=*****)”; for `Cc1cc(N2CC[C@](C)(c3ccccc3)C2)cn2nc(C(=O)N3CCC(Nc4cccc(C(=O)O)n4)C4(COC4)C3)nc12` (some centres unmarked) [Compound 702], “***** (>2.5° C.=*****)”.
Take `Cc1nc(C2C3(CNC(=O)CC(C)(C)C(=O)O)COC2(c2nc4c(C)cc(N5CC[C@](C)(c6ccccc6)C5)cn4n2)C3)n[nH]1` (some centres unmarked) [Compound 586]: the DSF entry is on record as “***** (>2.5° C.=*****)”.
The same measure, in the same setting: for `Cc1n[nH]c(C2C3COC2(c2nc4c(CN)cc(N5CC[C@](C)(c6ccccc6)C5)cn4n2)C3)n1` (some centres unmarked) [Compound 483] the value was “***** (>2.5° C.=*****)”.
For the compound `Cc1cc(N2CC[C@](C)(c3ccccc3)C2)cn2nc(C(=O)N3C[C@@H]4CN(c5cccc(C(=O)O)n5)C[C@]4(C)C3)nc12` [Compound 643], the DSF result is reported as “***** (>2.5° C.=*****)”.
As for `Cc1cc(N2CC[C@](C)(c3ccccc3)C2)cn2nc(C34CC(CO3)C4N3CC(C)(C)OC3=O)nc12` (stereo partly drawn) [Compound 529, 5,5-dimethyl-3-[1-[8-methyl-6-[(3R)-3-methyl-3-phenyl-pyrrolidin-1-yl]-[1,2,4]triazolo[1,5-a]pyridin-2-yl]-2-oxabicyclo[2.1.1]hexan-5-yl]oxazolidin-2-one], the DSF entry was “***** (>2.5° C.=*****)”.
Same read-out and setting: with `Cc1cc(N2CC[C@](C)(c3ccccc3)C2)cn2nc(C34CC(CO3)C4c3nc(N)nn3S(=O)(=O)C3CC(C)(C(=O)O)C3)nc12` (some centres unmarked) [Compound 566] the entry was “***** (>2.5° C.=*****)”; with `Cc1cc(N2CC[C@](C)(c3ccccc3)C2)cn2nc(C34CC(CO3)C4CN3CCN(C)C(=O)C3)nc12` (some centres unmarked) [Compound 488], “***** (>2.5° C.=*****)”; with `Cc1cc(N2CC[C@](C)(c3ccccc3)C2)cn2nc(C34CC(C(=O)NC(C)C)(CO3)C4)nc12` [Compound 443], “***** (>2.5° C.=*****)”.
Consider `Cc1cc(N2CC[C@](C)(c3ccccc3)C2)cn2nc(C(=O)N3CC4CCN(c5cccc(C(=O)O)n5)CC43)nc12` (some centres unmarked) [Compound 629], for which the DSF entry was “***** (>2.5° C.=*****)”.
For `Cc1nc(C2C3COC2(c2nc4c(C)cc(N5CC[C@](C)(c6ccccc6)C5)cn4n2)C3)cs1` (some centres unmarked) [Compound 485], the DSF result is “***** (>2.5° C.=*****)”.
Take `Cc1cc(N2CC[C@](C)(c3ccccc3)C2)cn2nc(C34CC(CO3)C4c3nc(NC(=O)N4CC(C(=O)O)C4)n[nH]3)nc12` (some centres unmarked) [Compound 554]: the DSF result is “***** (>2.5° C.=*****)”.
Regarding `Cc1cc(N2CC[C@](C)(c3ccccc3)C2)cn2nc(C34CC(CO3)C4c3nc(NS(=O)(=O)[C@H]4CC[C@@H](C(=O)O)CC4)n[nH]3)nc12` (some centres unmarked) [Compound 561], the DSF entry is “***** (>2.5° C.=*****)”.
`Cc1cc(N2CC[C@](C)(c3ccccc3)C2)cn2nc(C34CC(Cn5nncc5C)(CO3)C4)nc12` [Compound 451]: the DSF result is listed as “***** (>2.5° C.=*****)”.
As for `Cc1cc(N2CC[C@@](C)(n3ccc(C(F)(F)F)n3)C2)cn2nc(C(=O)N3CC[C@@]4(CCN(c5cccc(C(=O)O)n5)C4)C3)nc12` [Compound 741], the DSF result was “***** (>2.5° C.=*****)”.
As for `Cc1cc(N2CC[C@](C)(c3ccccc3)C2)cn2nc(C(=O)N[C@@H]3CCCN(c4cccc(C(=O)O)n4)C3)nc12` [Compound 693], the DSF entry is listed as “***** (>2.5° C.=*****)”.
For the compound `Cc1cc(N2CC[C@](C)(c3ccccc3)C2)cn2nc(C(=O)N[C@H]3C[C@]4(CCN(c5cccc(C(=O)O)n5)C4)C3)nc12` [Compound 623], the DSF result was “***** (>2.5° C.=*****)”.
